Broadly, the AC50 is the concentration at which the activity in the assay is half-maximal. By IC50 is commonly meant the point on the concentration scale where inhibition reaches its midpoint. As a reminder, the EC50 is the concentration needed to bring the measured effect to its halfway point.

Consider one compound from ChEMBL document CHEMBL1201862, “PubChem BioAssay data set” (2004).

Holding throughout (assay type): functional
Test [1] addresses T1, Replicative DNA helicase DnaB (Mycobacterium tuberculosis, UniProt P9WMR3).
T1 sequence (P9WMR3 whole entry): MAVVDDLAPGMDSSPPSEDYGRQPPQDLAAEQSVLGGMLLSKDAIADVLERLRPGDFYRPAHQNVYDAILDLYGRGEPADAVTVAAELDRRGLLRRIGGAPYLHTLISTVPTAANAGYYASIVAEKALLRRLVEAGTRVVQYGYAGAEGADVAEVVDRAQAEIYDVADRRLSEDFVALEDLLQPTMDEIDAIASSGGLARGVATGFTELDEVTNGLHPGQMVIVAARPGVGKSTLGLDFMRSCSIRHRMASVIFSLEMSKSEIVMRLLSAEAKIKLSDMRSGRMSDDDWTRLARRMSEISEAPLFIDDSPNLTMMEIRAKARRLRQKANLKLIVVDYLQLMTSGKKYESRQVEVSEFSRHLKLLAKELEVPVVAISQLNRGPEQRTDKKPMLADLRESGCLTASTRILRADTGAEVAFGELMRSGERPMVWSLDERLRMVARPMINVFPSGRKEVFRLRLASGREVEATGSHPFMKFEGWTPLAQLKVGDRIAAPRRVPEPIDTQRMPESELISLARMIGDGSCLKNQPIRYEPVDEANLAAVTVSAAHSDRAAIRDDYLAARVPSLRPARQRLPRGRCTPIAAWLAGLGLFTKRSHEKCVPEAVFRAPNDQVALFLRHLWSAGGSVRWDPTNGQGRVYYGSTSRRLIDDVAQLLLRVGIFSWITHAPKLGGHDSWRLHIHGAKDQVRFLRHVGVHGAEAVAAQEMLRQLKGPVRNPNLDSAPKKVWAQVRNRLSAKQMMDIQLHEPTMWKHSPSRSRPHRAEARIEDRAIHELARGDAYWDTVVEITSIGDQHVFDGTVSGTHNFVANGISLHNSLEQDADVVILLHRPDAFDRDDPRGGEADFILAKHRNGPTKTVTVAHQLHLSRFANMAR
Description: DnaB intein splicing inhibitors, dose response, biochemical, cell-free fluorescence (AID 449749).

A further test has as its target T2, Protein skinhead-1 (Caenorhabditis elegans, UniProt P34707).
T2 sequence (P34707 whole entry): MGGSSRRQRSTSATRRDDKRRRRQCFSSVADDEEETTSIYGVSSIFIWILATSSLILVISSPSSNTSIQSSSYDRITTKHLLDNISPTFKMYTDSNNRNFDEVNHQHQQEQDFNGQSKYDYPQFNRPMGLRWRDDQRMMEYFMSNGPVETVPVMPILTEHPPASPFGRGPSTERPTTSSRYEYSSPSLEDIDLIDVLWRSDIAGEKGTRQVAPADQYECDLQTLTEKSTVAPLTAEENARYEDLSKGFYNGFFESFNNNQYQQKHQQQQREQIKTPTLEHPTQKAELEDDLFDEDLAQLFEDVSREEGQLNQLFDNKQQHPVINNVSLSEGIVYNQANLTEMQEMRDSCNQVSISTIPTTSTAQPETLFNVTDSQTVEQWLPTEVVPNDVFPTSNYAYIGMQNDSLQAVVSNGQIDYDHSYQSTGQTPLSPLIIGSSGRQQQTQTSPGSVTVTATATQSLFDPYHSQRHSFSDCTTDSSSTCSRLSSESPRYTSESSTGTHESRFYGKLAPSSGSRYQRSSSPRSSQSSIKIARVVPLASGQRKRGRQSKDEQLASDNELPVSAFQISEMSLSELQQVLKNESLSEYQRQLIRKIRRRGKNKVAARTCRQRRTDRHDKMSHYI

The next test concerns the target T3, Protein RecA (Mycobacterium tuberculosis, UniProt P9WHJ3).
T3 sequence (P9WHJ3 whole entry): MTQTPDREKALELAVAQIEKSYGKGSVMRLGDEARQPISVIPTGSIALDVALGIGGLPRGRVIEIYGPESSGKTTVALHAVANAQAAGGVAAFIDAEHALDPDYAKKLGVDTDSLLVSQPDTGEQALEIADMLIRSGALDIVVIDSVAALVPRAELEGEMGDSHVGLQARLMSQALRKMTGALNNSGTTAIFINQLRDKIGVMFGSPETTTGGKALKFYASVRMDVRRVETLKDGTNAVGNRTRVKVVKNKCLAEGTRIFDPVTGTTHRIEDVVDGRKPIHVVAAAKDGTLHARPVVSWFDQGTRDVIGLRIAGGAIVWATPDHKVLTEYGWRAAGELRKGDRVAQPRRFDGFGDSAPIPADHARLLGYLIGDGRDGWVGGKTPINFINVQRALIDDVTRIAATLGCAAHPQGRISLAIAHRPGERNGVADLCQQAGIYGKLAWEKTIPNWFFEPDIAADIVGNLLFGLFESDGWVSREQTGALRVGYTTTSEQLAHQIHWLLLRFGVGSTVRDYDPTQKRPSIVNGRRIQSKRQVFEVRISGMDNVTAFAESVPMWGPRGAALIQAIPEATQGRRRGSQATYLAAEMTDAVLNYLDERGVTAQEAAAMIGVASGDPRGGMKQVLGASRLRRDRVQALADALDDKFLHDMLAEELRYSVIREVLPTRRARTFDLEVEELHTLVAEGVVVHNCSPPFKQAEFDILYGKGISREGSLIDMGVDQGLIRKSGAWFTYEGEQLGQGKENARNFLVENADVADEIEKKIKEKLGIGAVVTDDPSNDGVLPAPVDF
In words: Fluorescence Cell-Free Homogeneous Dose Retest to Identify Inhibitors of RecA-Intein Splicing Activity. [Related pubchem assays (depositor defined):AID2097, AID2223, AID489010, AID492950].

Calls of active or inactive are those of the source.

As to `COc1ccc(-c2cc(C(=O)n3cnc4ccccc43)c3ccccc3n2)cc1`, the AC50 in test [1] was > 380 µM (inactive). Besides, the IC50 on Protein skinhead-1 is > 100 µM (inactive). Further, the EC50 on Protein RecA is 3.72 µM (active).
